Reference: patent publication US5527809A, “Substituted imidazo[4,5-b]pyridines and benzimidazoles” (Bayer Aktiengesellschaft, priority 1993, dated 1996)

Legend:
smooth muscle cells = test: Inhibition of the proliferation of smooth muscle cells (3H-thymidine incorporation); type: cell-based; conditions: rat aorta smooth muscle cells; thymidine incorporation produced by 10% FCS; read-out: IC50 (half-maximum inhibition of thymidine incorporation)
Protocol: Investigation of the inhibition of the proliferation of smooth muscle cells by the compounds according to the invention
To determine the antiproliferation action of the compounds, smooth muscle cells are used which are obtained from aortas of rats by the media explant technique [R. Ross, J. Cell. Biol. 50, 172, 1971]. The cells are inoculated in suitable culture dishes, as a rule 96-hole plates, and cultured in 5% CO2 at 37° C. for 2-3 days in medium 199 containing 7.5% FCS and 7.5% NCS, 2 mM L-glutamine and 15 mM HEPES, pH 7.4. The cells are then synchronized by withdrawal of serum for 2-3 days and then stimulated into growth with serum or other factors. Test compounds are simultaneously added. After 16-20 hours, 1 μCi of ^3 H-thymidine is added and after a further 4 hours the incorporation of this substance into the TCA-precipitatable DNA of the cells is determined. To determine the IC50 values, the active compound concentration is calculated which, on sequential dilution of the active compound, causes half-maximum inhibition of the thymidine incorporation produced by 10% FCS.

angiotensin II receptor = biological target: T1, angiotensin II receptor (Bos taurus, UniProt P25104); test: Interaction with the angiotensin II receptor in membrane fractions of the adrenal gland cortex (bovine), 3H-angiotensin II binding; conditions: bovine adrenal gland cortex membranes; 3H-angiotensin II 3-5 nM; 60 min, room temperature; read-out: IC50 (50% inhibition of the specific binding of the radioligand)
T1 construct: partially purified membrane fractions of bovine AGC; from tissue; host or cells: bovine adrenal gland cortex, partially purified membrane fractions
T1 sequence (P25104 1-359): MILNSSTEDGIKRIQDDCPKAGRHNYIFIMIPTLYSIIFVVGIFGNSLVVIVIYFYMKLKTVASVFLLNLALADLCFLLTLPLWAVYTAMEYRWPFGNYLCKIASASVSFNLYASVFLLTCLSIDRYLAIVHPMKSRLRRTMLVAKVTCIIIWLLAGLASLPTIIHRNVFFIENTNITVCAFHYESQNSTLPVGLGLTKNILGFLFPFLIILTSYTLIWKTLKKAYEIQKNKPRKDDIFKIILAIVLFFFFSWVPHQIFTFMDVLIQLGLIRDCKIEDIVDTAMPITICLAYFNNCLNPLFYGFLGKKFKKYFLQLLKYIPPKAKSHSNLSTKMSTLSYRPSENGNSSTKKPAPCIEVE
Source text: Interaction of the compounds according to the invention with the angiotensin II receptor in membrane fractions of the adrenal gland cortex (bovine)
Bovine adrenal gland cortices (AGC), which have been freshly removed and carefully freed from medulla from capsule, are comminuted in sucrose solution (0.32M) with the aid of an Ultra-Turrax (Janke & Kunkel, Staufen i.B.) to give a coarse membrane homogenate and are partially purified in two centrifugation steps to give membrane fractions. The receptor binding investigations are carried out on partially purified membrane fractions of bovine AGC using radioactive angiotensin II in an assay volume of 0.25 ml, which specifically contains the partially purified membranes (50-80 μg), ^3 H-angiotensin II (3-5 nM), test buffer solution (50 mM Tris, pH 7.2), 5 mM MgCl2 and the substances to be investigated. After an incubation time of 60 min at room temperature, the unbound radioactivity of the samples is separated by means of moistened glass fibre filters (Whatman GF/C) and the bound radioactivity is measured […] in a scintillation cocktail after washing the protein with ice-cold buffer solution (50 mM Tris/HCl, pH 7.4, 5% PEG 6000). […]

[1] = tested on: isolated rabbit aorta (contraction induced by angiotensin II); test: Inhibition of the contraction induced by agonists in isolated rabbit aorta rings (angiotensin II); conditions: Oryctolagus cuniculus, based on the 3rd = submaximal agonist concentration, read-out: IC50 (50% inhibition of agonist-induced contraction)
Protocol: Investigation of the inhibition of the contraction induced by agonists
Rabbits of either sex are stunned by a blow to the back of the head and exsanguinated, or in some cases anaesthetized with Nembutal (about 60-80 mg/kg i.v.) and sacrificed by opening the thorax. The thoracic aorta is removed, freed from adhering connective tissue, divided into ring segments 1.5 mm wide and individually transferred under an initial loading of about 3.5 g to 10 ml organ baths containing Krebs-Henseleit nutrient solution, which is temperature-controlled at 37° C. and aerated with 95% 02 / 5% CO2, of the following composition: 119 mmol/l NaCl; 2.5 mmol/l CaCl2 ×2H2 O; 1.2 mmol/l KH2 PO4; 10 mmol/l glucose; 4.8 mmol/l KCl; 1.4 mmol/l MgSO4 ×7 H2 O and 25 mmol/l NaHCO3.
The contractions are detected isometrically by Statham UC2 cells by means of bridge amplifiers (ifd Mulheim or DSM Aalen) and digitalized and assessed by means of A/D converters (System 570, Keithley Munich). Agonist dose response curves (DRC) are carried out hourly. With each DRC, 3 or 4 individual concentrations are applied to the baths at a 4 min interval. After the end of the DRC and subsequent washing-out cycles (16 times in each case about 5 sec/min with the abovementioned nutrient solution), a 28-minute rest or incubation phase follows, during which the contractions as a rule reach the starting value again. […]

Row | Structure (SMILES) | IC50 (smooth muscle cells) [nM] | IC50 (angiotensin II receptor) [nM] | IC50 [1] [nM]
1 | Cc1ccnc2c1nc(-c1ccccc1)n2Cc1ccc(C(C(=O)NC(C(N)=O)c2ccccc2)C2CCCCCC2)cc1 (centres unmarked) [Example 23] | 43 | – | –
2 | Cc1ccc(S(=O)(=O)NC(=O)Cc2ccc(Cn3c(C4CC4)nc4c(C)cc(C)nc43)cc2)cc1 [Example 9] | – | 16 | 61
3 | O=C(N[C@H](CO)c1ccccc1)C(c1ccc(Cn2c(-c3ccccc3)nc3cccnc32)cc1)C1CCCCCC1 (some centres unmarked) [Example 14] | 120 | – | –
4 | Cc1cc(C)c2nc(C3CC3)n(Cc3ccc(C(C(=O)O)C(C)C)cc3)c2n1 (centres unmarked) [Example 2] | – | 210 | –
